# Reference: article PMC8945041 (Biomedicines, 2022)
# Read-outs that look alike come from different tables or passages of the source.
# Columns and labels:
# [1] = test system: POPC and POPC:Chol (2:1) LUV, erythrocytes and PBMCs; assay type: binding, human
# [2] = pH 7.4
# [3] = pH 7.4; remark: listed apart in the source
# Erythrocytes = assay type: binding, human; settings: for Kd: read-out: Kd (apparent dissociation constant), Erythrocytes
# PBMCs = assay type: binding, human; settings: for Kd: read-out: Kd (apparent dissociation constant), PBMCs
molecule,measurement,setting,value
CC(C)CCC[C@@H](C)[C@H]1CC[C@H]2[C@@H]3CC=C4C[C@@H](O)CC[C@]4(C)[C@H]3CC[C@]12C [cholesterol],change in membrane dipole potential (di-8-ANEPPS),[1],no changes in dipole potential were observed
VIKI–GSGSG-C-dPEG4–Cys–(CH2CONH2) [VIKI-dPEG4],secondary structure by CD,[2],random coil
same,"maximum fluorescence emission wavelength, free in solution",[3],356 nm
VIKI–GSGSG–C-dPEG4–Cys-(PEG4-bis-tocopherol) [VIKI-dPEG4-bisToco],"Rmin, Erythrocytes",Erythrocytes,−0.22 ± 0.01
same,Kd,Erythrocytes,90 ± 30 nM
same,"Rmin, PBMCs",PBMCs,−0.27 ± 0.01
same,Kd,PBMCs,180 ± 40 nM
VIKI–GSGSG–C-dPEG4–Cys–(PEG4-bis-cholesterol) [VIKI-dPEG4-bisChol],"Rmin, Erythrocytes",Erythrocytes,−0.36 ± 0.01
same,Kd,Erythrocytes; 1.4% DMSO,70 ± 20 nM
same,"Rmin, PBMCs",PBMCs,−0.24 ± 0.01
same,Kd,PBMCs; 1.4% DMSO,220 ± 50 nM
VIKI–GSGSG–C-dPEG4–Cys–cholesterol [VIKI-dPEG4-Chol],"Rmin, Erythrocytes",Erythrocytes,−0.33 ± 0.01
same,Kd,Erythrocytes; 1.4% DMSO,130 ± 30 nM
same,"Rmin, PBMCs",PBMCs,−0.23 ± 0.02
same,Kd,PBMCs; 1.4% DMSO,300 ± 120 nM
VIKI–GSGSG–C-dPEG4–Cys–tocopherol [VIKI-dPEG4-Toco],"Rmin, Erythrocytes",Erythrocytes,−0.30 ± 0.01
same,Kd,Erythrocytes,140 ± 30 nM
same,"Rmin, PBMCs",PBMCs,−0.29 ± 0.02
same,Kd,PBMCs,510 ± 120 nM
tocopherol,change in membrane dipole potential (di-8-ANEPPS),[1],no changes in dipole potential were observed
